The results in this text go back to PMC6952414 (Nature Communications, 2020).

Where “and” joins values, the source holds several entries; their conditions need not be identical. Identical values can stand only once.

The assay concerns HA. The assay is classed as binding, IAV H1N1 strain A/Puerto Rico/8/1934 (PR8).
Consider ARRVNHH, for which the HA x ratio was found to be 0.61.

As to DRRVNHH, the HA x ratio is 0.65. As for ERRVNHH, the figure is 0.60; as for FRRVNHH, 0.71; as for GRRVNHH, 0.37.

As for HRRVNHH, the HA x ratio was found to be 0.38. As for IRRVNHH, the figure is 0.41; as for KRRVNHH, 0.87.

On to LRRVNHH, for which the HA x ratio amounted to 0.80. As for MRRVNHH, the figure is 0.73; as for NRRVNHH, 0.43. In the case of PRRVNHH, the HA x ratio came out at 0.56. Take QRRVNHH: the HA x ratio was determined as 0.78. The value for RARDNHH was 0.61 and 0.73 and 0.72. The value for RARVNHH was 1.61; that for RDRVNHH was 0.80.

As for RERVNHH, the HA x ratio turned out to be 0.54. As for RFPVNHH, the figure is 1.20 and 1.08 and 1.00; as for RFRVNHH, 0.56.

With RGPVNHH, the HA x ratio was 1.56 and 1.10 and 0.92. Take RGRDNHH: the HA x ratio was 0.78 and 1.32 and 1.08. RGRVNHH: the HA x ratio amounted to 1.41. On to RHPVNHH, for which the HA x ratio was 0.90 and 1.23 and 0.70. The value for RHRDNHH was 1.05 and 1.04 and 0.77; that for RHRVNHH was 1.57.

Take RIPVNHH: the HA x ratio is 1.46 and 1.18 and 0.86.

With RIRVNHH, the HA x ratio amounted to 1.38. Take RKPVNHH: the HA x ratio was 1.27 and 1.55 and 1.97.

With RKRDNHH, the HA x ratio was 1.05 and 0.70. The value for RKRVNHH was 1.35; that for RLPVNHH was 0.45 and 0.68 and 0.79. With RLRVNHH, the HA x ratio is given as 1.05. The value for RMRDNHH was 0.77 and 0.40 and 0.59; that for RMRVNHH was 0.90. The value for RNPVNHH was 1.21 and 1.04 and 0.76; that for RNRVNHH was 1.11. The value for RPPVNHH was 0.98 and 0.96 and 0.50; that for RPRVNHH was 0.60; that for RQPVNHH was 0.63 and 0.91 and 1.08. Regarding RQRDNHH, the HA x ratio was 1.02 and 1.69 and 1.17.

RQRVNGG: the HA x ratio came out at 0.75.

For RRADNHH, the HA x ratio was 0.49 and 0.70 and 0.62. As for RRAVNHH, the figure is 0.96; as for RRDVNHH, 0.60; as for RREVNHH, 3.11. The value for RRFDNHH was 0.56 and 0.46 and 0.45. As for RRFVNHH, the figure is 2.86; as for RRGVNHH, 2.40. With RRHDNHH, the HA x ratio was 1.24 and 1.02 and 1.09. In the case of RRHVNHH, the HA x ratio is 1.09. As for RRIVNHH, the figure is 1.20; as for RRKVNHH, 0.82.

Consider RRLVNHH, for which the HA x ratio turned out to be 0.69. As for RRMDNHH, the figure is 0.63 and 1.00 and 0.79; as for RRMVNHH, 0.79; as for RRNDNHH, 0.51 and 0.36 and 0.50. The value for RRNVNHH was 0.61.

On to RRPKNHH, for which the HA x ratio is 0.76 and 0.64 and 0.51.

With RRPLNHH, the HA x ratio was 0.82 and 0.76 and 0.42. As for RRPNNHH, the figure is 1.47 and 1.90 and 1.08; as for RRPRNHH, 0.65 and 0.78 and 0.39. As for RRPVNHE, the figure is 1.47 and 1.30 and 1.11; as for RRPVNHF, 1.54 and 1.38 and 2.67. The value for RRPVNHK was 1.14 and 0.99 and 0.62; that for RRPVNHQ was 1.37 and 1.26 and 0.94.

RRPVNHS: the HA x ratio was 1.08 and 1.99 and 1.46. The value for RRPVNHT was 0.76 and 1.24 and 0.77. As for RRPVNHY, the figure is 1.43 and 0.76 and 0.77. RRQVNHH: the HA x ratio is recorded as 2.55. As for RRRANHH, the figure is 0.36.

As to RRRDNHA, the HA x ratio was 1.07 and 0.73 and 0.58. As for RRRDNHD, the figure is 0.55 and 0.60 and 0.30.

For the substance RRRDNHL, the HA x ratio is 0.92 and 0.83 and 0.51. RRRDNHP: the HA x ratio is 0.54 and 0.61 and 0.45.

With RRRDNHQ, the HA x ratio was 0.36 and 0.45 and 0.67. RRRDNHV: the HA x ratio is 1.05 and 1.22 and 1.16. The value for RRRENHH was 0.59; that for RRRFNHH was 0.78; that for RRRGNHH was 0.46. As for RRRHNHH, the figure is 0.30; as for RRRINHH, 0.39; as for RRRKNHH, 1.55. As for RRRLNHH, the figure is 0.42; as for RRRMNHH, 2.13. Turning to RRRNNHH, the HA x ratio is listed as 2.20. As for RRRPNHH, the figure is 0.36; as for RRRQNHH, 1.81. The value for RRRRNHH was 1.09; that for RRRSNHH was 0.40; that for RRRTNHH was 0.28. As for RRRVAHH, the HA x ratio was determined as 1.62. The value for RRRVDHH was 1.09; that for RRRVEHH was 0.64; that for RRRVFHH was 0.71. The value for RRRVGHH was 0.56; that for RRRVHHH was 0.35. Consider RRRVIHH, for which the HA x ratio was determined as 0.63.

For RRRVKHH, the HA x ratio is listed as 1.27.

With RRRVLHH, the HA x ratio amounted to 1.21.

Consider RRRVMHH, for which the HA x ratio stood at 0.90. The value for RRRVNAH was 0.91. As for RRRVNDH, the HA x ratio was determined as 0.72. Turning to RRRVNEH, the HA x ratio came out at 0.49. Turning to RRRVNFH, the HA x ratio turned out to be 0.93.

In the case of RRRVNGH, the HA x ratio was 0.70. The value for RRRVNHA was 0.56; that for RRRVNHD was 0.46. The value for RRRVNHE was 1.77; that for RRRVNHF was 0.66; that for RRRVNHG was 1.43.

Consider RRRVNHI, for which the HA x ratio turned out to be 0.72. As for RRRVNHK, the figure is 0.59; as for RRRVNHL, 0.48. The value for RRRVNHM was 0.42.

As to RRRVNHN, the HA x ratio is 0.66. As for RRRVNHP, the HA x ratio turned out to be 1.63.

As to RRRVNHQ, the HA x ratio is reported as 0.72.

Regarding RRRVNHR, the HA x ratio is listed as 1.48. The value for RRRVNHS was 1.03; that for RRRVNHT was 1.23; that for RRRVNHV was 0.49. The value for RRRVNHW was 0.44; that for RRRVNHY was 0.36. The value for RRRVNIH was 0.95; that for RRRVNKH was 1.27; that for RRRVNLH was 1.09. As to RRRVNMH, the HA x ratio was found to be 1.22.

RRRVNNH: the HA x ratio was 1.00. The value for RRRVNPH was 0.89. As for RRRVNQH, the figure is 0.65. The value for RRRVNRH was 0.73; that for RRRVNSH was 0.86; that for RRRVNTH was 0.88.

Consider RRRVNVH, for which the HA x ratio was determined as 0.80.

Regarding RRRVNWH, the HA x ratio is given as 0.80. As for RRRVNYH, the figure is 1.55; as for RRRVPHH, 0.90. Consider RRRVQHH, for which the HA x ratio is on record as 0.71. The value for RRRVRHH was 1.24. As for RRRVSHH, the figure is 0.61; as for RRRVTHH, 0.46; as for RRRVVHH, 1.27. The value for RRRVWHH was 0.57; that for RRRVYHH was 1.10; that for RRRWNHH was 0.30. Turning to RRRYNHH, the HA x ratio is recorded as 0.39. Take RRSFNHH: the HA x ratio is 0.82 and 0.91 and 0.46. As for RRSKNHH, the figure is 1.10 and 0.79 and 1.25; as for RRSMNHH, 0.75 and 0.55; as for RRSNNHH, 0.73 and 0.74 and 0.37. With RRSPNHH, the HA x ratio was 0.39 and 0.47 and 0.43.

In the case of RRSRNHH, the HA x ratio is 1.02 and 0.86 and 0.77. As for RRTVNHH, the figure is 1.15.

On to RRVVNHH, for which the HA x ratio is given as 0.57. As for RRWVNHH, the figure is 0.66; as for RRYDNHH, 1.25 and 0.92 and 1.56.

Turning to RRYVNHH, the HA x ratio is 0.69. RSPVNHH: the HA x ratio was 1.07 and 0.89 and 0.72.

For RSRVNHH, the HA x ratio was found to be 2.42. As for RTRDNHH, the figure is 1.38 and 1.50; as for RTRVNHH, 2.79; as for RVPVNHH, 1.05 and 1.07 and 0.75.

As to RVRVNHH, the HA x ratio was 0.68. In the case of RWRDNHH, the HA x ratio is 1.15 and 1.05 and 0.76. As for RWRVNHH, the figure is 1.99.

Take RYRVNHH: the HA x ratio amounted to 1.46. The value for SRRVNHH was 0.49. The value for TRRVNHH was 0.39. On to VRRVNHH, for which the HA x ratio was 0.98.

Take WRRVNHH: the HA x ratio was 0.56. Take YRRVNHH: the HA x ratio was determined as 1.34.
